Experimental data reported in patent publication US11840497B2, “4-(p-quinonyl)-2-hydroxybutanamide derivatives for treatment of mitochondrial diseases” (PTC Therapeutics, Inc., priority 2007, dated 2023).
pEC50: −log10 of the molar value.

Tests used:
Type in all cases: cell-based
[1] = system: human dermal fibroblasts from Parkinson's Disease patients; test: Rescue of BSO-stressed fibroblasts from Parkinson's Disease patients (Example D); conditions: Fibroblast, PD fibroblasts AG20439, screen as Example A, read-out: protection against PD, EC50
Protocol: The compounds were tested for their ability to rescue human dermal fibroblasts from Parkinson's Disease patients from oxidative stress.

[2] = system: human dermal fibroblasts from LHON patients; test: Rescue of BSO-stressed fibroblasts from LHON patients (Example C); conditions: Fibroblast, LHON fibroblasts GM03858, screen as Example A, read-out: protection against LHON, EC50
Protocol: The compounds were tested for their ability to rescue human dermal fibroblasts from LHON patients from oxidative stress.

[3] = system: human dermal fibroblasts from Huntington's patients; test: Rescue of BSO-stressed fibroblasts from Huntington's patients (Example B); conditions: Fibroblast, Huntington's fibroblasts GM 04281, screen as Example A, read-out: protection against Hungtington's, EC50
Protocol: The compounds were tested for their ability to rescue human dermal fibroblasts from Huntington's patients from oxidative stress.

[4] = system: Human dermal fibroblasts from Friedreich's Ataxia patients; test: Rescue of BSO-stressed FRDA fibroblasts (Example A); conditions: FRDA fibroblasts GM04078, 1 mM BSO, read-out: protection against FRDA, EC50
Protocol: Test samples, 4 reference compounds (idebenone, decylubiquinone, Trolox and α-tocopherol acetate), and solvent controls were tested for their ability to rescue FRDA fibroblasts stressed by addition of L-buthionine (S,R)-sulfoximine (BSO), as described in Jauslin et al., Hum. Mol. Genet. […] Mol. Genet. […] This specific BSO-mediated cell death can be prevented by administration of antioxidants or molecules involved in the antioxidant pathway, such as α-tocopherol, selenium, or small molecule glutathione peroxidase mimetics. However, antioxidants differ in their potency, i.e. the concentration at which they are able to rescue BSO-stressed FRDA fibroblasts.
Fetal Calf Serum was obtained from PAA Laboratories. Basic fibroblast growth factor and epidermal growth factor were purchased from PeproTech. Penicillin-streptomycin-glutamine mix, L-buthionine (S,R)-sulfoximine, (+)-α-tocopherol acetate, decylubiquinone, and insulin from bovine pancreas were purchased from Sigma. Trolox (6-Hydroxy-2,5,7,8-tetramethylchroman-2-carboxylic acid) was obtained from Fluka. Idebenone was obtained from Chemo Iberica. Calcein AM was purchased from Molecular Probes. Cell culture medium was made by combining 125 ml M199 EBS, 50 ml Fetal Calf Serum, 100 U/ml penicillin, 100 μg/ml streptomycin, 2 mM glutamine, 10 μg/ml insulin, 10 ng/ml EGF, and 10 ng/ml bFGF; MEM EBS was added to make the volume up to 500 ml. […] During the course of the experiments, this solution was stored at +4° C. The cells were obtained from the Coriell Cell Repositories (Camden, NJ; repository number GM04078) and grown in 10 cm tissue culture plates. Every third day, they were split at a 1:3 ratio.
The test samples were supplied in 1.5 ml glass vials. […] Once dissolved, they were stored at −20° C. Reference antioxidants (idebenone, decylubiquinone, α-tocopherol acetate and trolox) were dissolved in DMSO.
Test samples were screened according to the following protocol: A culture with FRDA fibroblasts was started from a 1 ml vial with approximately 500,000 cells stored in liquid nitrogen. […] Once confluent, fibroblasts were harvested. […] The remaining cells were distributed in 10 cm cell culture plates (500,000 cells/plate) for propagation. The plates were incubated overnight at 37° C. in a atmosphere with 95% humidity and 5% CO2 to allow attachment of the cells to the culture plate.
MTP medium (243 μl) was added to a well of the microtiter plate. […] Serial dilutions from the master solution were made. The period between the single dilution steps was kept as short as possible (generally less than 1 second).
Plates were kept overnight in the cell culture incubator. The next day, 10 μl of a 10 mM BSO solution were added to the wells, resulting in a 1 mM final BSO concentration. Forty-eight hours later, three plates were examined under a phase-contrast microscope to verify that the cells in the 0% control (wells E1-H1) were clearly dead. The medium from all plates was discarded, and the remaining liquid was removed by gently tapping the plate inversed onto a paper towel.
The plates were incubated for 50-70 minutes at room temperature. After that time the PBS was discarded, the plate gently tapped on a paper towel and fluorescence (excitation/emission wavelengths of 485 nm and 525 nm, respectively) was read on a Gemini fluorescence reader. Data was imported into Microsoft Excel (EXCEL is a registered trademark of Microsoft Corporation for a spreadsheet program) and used to calculate the EC50 concentration for each compound.
The compounds were tested three times, i.e., the experiment was performed three times, the passage number of the cells increasing by one with every repetition.
The viability of non-BSO treated fibroblasts was set as 100%, and the viability of the BSO- and compound-treated cells was calculated as relative to this value.

[5] = system: human dermal fibroblasts from CoQ10 deficient patients; test: Rescue of stressed fibroblasts from CoQ10 deficient patients (Example E); conditions: Fibroblast, fibroblasts harboring a CoQ2 mutation, screen similar to Example A, read-out: protection against CoQ10 deficiency, EC50
Protocol: Compounds of the invention were tested using a screen similar to the one described in Example A, but substituting FRDA cells with cells obtained from CoQ10 deficient patients harboring a CoQ2 mutation.

Measured: pEC50

CC1=C(C)C(=O)C(CCC(C)(O)C(=O)NC(C)C)=C(C)C1=O (stereo not drawn) [2-hydroxy-N-isopropyl-2-methyl-4-(2,4,5-trimethyl-3,6-dioxocyclohexa-1,4-dienyl)butanamide]
> 7.00: [1]

CC1=C(C)C(=O)C(CCC(C)(O)C(=O)N2CCN(Cc3ccccc3)CC2)=C(C)C1=O (stereo not drawn) [Example 15, 2-(4-(4-Benzylpiperazin-1-yl)-3-hydroxy-3-methyl-4-oxobutyl)-3,5,6-trimethylcyclohexa-2,5-diene-1,4-dione]
not listed: [5]
> 7.00: all other assays above

CC1=C(C)C(=O)C(CCC(C)(O)C(=O)NCCO)=C(C)C1=O (stereo not drawn) [Example 20, 2-Hydroxy-N-(2-hydroxyethyl)-2-methyl-4-(2,4,5-trimethyl-3,6-dioxocyclohexa-1,4-dienyl)butanamide]
> 7.00: all assays above

CC1=C(C)C(=O)C(CCC(C)(O)C(=O)NCCCn2ccnc2)=C(C)C1=O (stereo not drawn) [Example 23, N-(3-(1H-imidazol-1-yl)propyl)-2-hydroxy-2-methyl-4-(2,4,5-trimethyl-3,6-dioxocyclohexa-1,4-dienyl)butanamide]
> 7.00: [1] | [3] | [4]

CC1=C(C)C(=O)C(CC[C@@](C)(O)C(=O)NCCO)=C(C)C1=O [Example 24, (R)-2-Hydroxy-N-(2-hydroxyethyl)-2-methyl-4-(2,4,5-trimethyl-3,6-dioxocyclohexa-1,4-dienyl)butanamide]
> 7.00: [1] | [3] | [4]

CC1=C(C)C(=O)C(CCC(C)(O)C(=O)NCCOCCO)=C(C)C1=O (stereo not drawn) [Example 25, 2-Hydroxy-N-(2-(2-hydroxyethoxy)ethyl)-2-methyl-4-(2,4,5-trimethyl-3,6-dioxocyclohexa-1,4-dienyl)butanamide]
not listed: [5]
> 7.00: all other assays above

CC1=C(C)C(=O)C(CC[C@](C)(O)C(=O)NCCO)=C(C)C1=O [Example 28, (S)-2-hydroxy-N-(2-hydroxyethyl)-2-methyl-4-(2,4,5-trimethyl-3,6-dioxocyclohexa-1,4-dienyl)butanamide]
> 7.00: [1] | [3] | [4]

CC1=C(C)C(=O)C(CCC(C)(O)C(=O)NCCc2ccc(O)cc2)=C(C)C1=O (stereo not drawn) [Example 36, N-(4-Hydroxyphenethyl)-2-hydroxy-2-methyl-4-(2,4,5-trimethyl-3,6-dioxocyclohexa-1,4-dienyl)butanamide]
not listed: [5]
> 7.00: all other assays above

CC1=C(C)C(=O)C(CCC(C)(O)C(=O)NCCN(C)C)=C(C)C1=O (stereo not drawn) [Example 37, N-(2-(Dimethylamino)ethyl)-2-hydroxy-2-methyl-4-(2,4,5-trimethyl-3,6-dioxocyclohexa-1,4-dienyl)butanamide]
> 7.00: all assays above

CC1=C(C)C(=O)C(CCC(C)(O)C(=O)NCCCN(C)C)=C(C)C1=O (stereo not drawn) [Example 40, N-(3-(Dimethylamino)propyl)-2-hydroxy-2-methyl-4-(2,4,5-trimethyl-3,6-dioxocyclohexa-1,4-dienyl)butanamide]
> 7.00: [1] | [3] | [4]

CC1=C(C)C(=O)C(CCC(C)(O)C(=O)Nc2ccc(F)cc2)=C(C)C1=O (stereo not drawn) [N-(4-fluorophenyl)-2-hydroxy-2-methyl-4-(2,4,5-trimethyl-3,6-dioxocyclohexa-1,4-dienyl)butanamide]
not listed: [1]
> 7.00: all other assays above
